Data taken from patent publication US20180298332A1, “Microfluidic Model of the Blood Brain Barrier” (EMULATE, Inc., priority 2015, published 2018).

What was measured:
neurons seeded in chip = assay type: cell-based, human
[1] = system: cell monolayers with tight junctions; conditions: cited from earlier work
iBMEC barrier function = assay: TEER measurement on prototype TEER chips under flow; assay type: cell-based, human; conditions: chip under flow, then exposure to TNFa; FIG. 14A
Procedure: Cells were plated on tall channel PDMS chips equipped with incorporated gold electrodes on each channel (see FIG. 13A). Post seeding of BMECs, transendothelial electrical resistance was measured by connecting the electrodes to an EVOM2 voltohmmeter (see FIG. 13B). […] The “damaged” chip was a failure due to the TEER-Chips being a prototype.
Higher TEER values generally indicate a tighter barrier, which is typically desirable for a blood-brain barrier.

[2] = system: BMECs seeded on a microfluidic device; assay: Paracellular permeability assay with Dextran-FITC on chip; assay type: cell-based, human; conditions: TNF-alpha exposure; Dextran-FITC 4 KDa added to bottom channel, measured in top channel; FIG. 14B
Source text: Brain microvascular endothelial cells (BMECs) constitute the blood-brain barrier (BBB) which forms a dynamic interface between the blood and the central nervous system (CNS) in vivo. This highly specialized interface restricts paracellular diffusion of fluids and solutes including chemicals, toxins and drugs from entering the brain. In this example, fluorescein sodium is used in a paracellular permeability assay of the BMECs seeded on a microfluidic device.
Albumin or Dextran conjugated to a fluorescent probe (e.g., FITC or TRITC) are frequently used to monitor changes in leakage, and thus barrier function. In this case, Dextran-FITC, a green fluorescent molecule of 4 KDa, or sodium fluorescein (a 0.3 KDa molecule), was added to the bottom (“blood side”) channel. Paracellular permeability was calculated by measuring the permeability of the fluorescent molecule on the Top (“brain side”) channel. […] FIG. 14B involves TNF-alpha exposure, but the readout is membrane permeability as measured by Dextran-FITC.

For `NC1=N[C@H](O)[C@H]2[C@H]3O[C@]4(O)O[C@@H]([C@@H](O)[C@@]2(N1)[C@@H]4O)[C@]3(O)CO` [tetrodotoxin], the “neuronal calcium flux activity” value (neurons seeded in chip) was “ablates this activity”.

For Lucifer Yellow, the “Permeability (Papp)” value [1] is given as 0.5 to 1.2 ×10⁻⁶ cm/s.

With TNFa the “iBMEC barrier function (TEER) after exposure of the chips” value (iBMEC barrier function) was “weakening of barrier function” and the “membrane permeability as measured by Dextran-FITC” value [2] was “increase in permeability”.
